The record followed here is publication PMC7157764, “Avoiding Drug Resistance by Substrate Envelope-Guided Design: Toward Potent and Robust HCV NS3/4A Protease Inhibitors” (mBio, 2020).

In experiment [1] the target is T1, HCV NS3/4A protease D168A variant (Hepatitis C virus genotype 1a, UniProt P27958, C1185S/D1194A).
T1 construct: His tag (cleaved yes); made in house; host or cells: Escherichia coli BL21(DE3), pET28a
The class given is biochemical. The conditions noted are these: for Ki: 2 nM protease preincubated 1 h at room temperature with inhibitor, pH 7.5, 200 nM fluorogenic substrate, Morrison equation global fit, error from global fit of at least three replicates.

Experiment [2] deals with HCV NS3/4A protease D168A variant. The class given is biochemical, Hepatitis C virus genotype 1a.
In experiment [3] the target is T2, HCV NS3/4A protease GT1a WT (Hepatitis C virus genotype 1a, UniProt P27958, C1185S).
T2 construct: His tag (cleaved yes); made in house; host or cells: Escherichia coli BL21(DE3), pET28a
The class given is biochemical. The settings on record: for Ki: 2 nM protease preincubated 1 h at room temperature with inhibitor, pH 7.5, 200 nM fluorogenic substrate, Morrison equation global fit, error from global fit of at least three replicates; for Fold increase in potency against WT compared with the parent compound: relative to parent compound, WT protease.

A word on the Ki: it is the dissociation constant of the complex between target and ligand, obtained from inhibition or displacement. Lower therefore signals a stronger hold on the target.

T2 sequence (P27958 1027-1208 C1185S): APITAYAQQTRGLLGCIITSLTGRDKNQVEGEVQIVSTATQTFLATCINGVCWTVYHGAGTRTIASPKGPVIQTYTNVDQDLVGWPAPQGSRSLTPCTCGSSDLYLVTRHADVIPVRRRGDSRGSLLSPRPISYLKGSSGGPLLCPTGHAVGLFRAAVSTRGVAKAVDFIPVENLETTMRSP
T1 sequence (P27958 1027-1208 C1185S/D1194A): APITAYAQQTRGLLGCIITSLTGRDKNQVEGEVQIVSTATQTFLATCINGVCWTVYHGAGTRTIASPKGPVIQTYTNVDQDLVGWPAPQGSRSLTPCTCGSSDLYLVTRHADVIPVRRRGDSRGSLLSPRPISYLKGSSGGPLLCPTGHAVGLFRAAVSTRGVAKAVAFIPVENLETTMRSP

`COC(=O)NC1(C(=O)N[C@H]2CCCCC/C=C\[C@@H]3C[C@@]3(C(=O)NS(=O)(=O)C3(C)CC3)NC(=O)[C@@H]3C[C@@H](Oc4nc5cc(OC)ccc5nc4C)CN3C2=O)CCCC1` [P4P5-5]: the Ki in experiment [1] turned out to be 0.931 ± 0.07 µM; in experiment [3], 0.031 ± 0.00274 µM. In addition, the “Fold change of Ki, D168A relative to WT” value in experiment [2] is reported as 30 fold.

As to `COc1ccc2nc(C)c(O[C@@H]3C[C@H]4C(=O)N[C@]5(C(=O)NS(=O)(=O)C6(C)CC6)C[C@H]5/C=C\CCCCC[C@H](NC(=O)OC5CCCCC5)C(=O)N4C3)nc2c1` [P4-6], the Ki in experiment [1] was 0.0127 ± 0.0012 µM; in experiment [3], 0.00094 ± 0.00025 µM. In experiment [2], the “Fold change of Ki, D168A relative to WT” value is listed as 14 fold.

`CCC1(OC(=O)N[C@H]2CCCCC/C=C\[C@@H]3C[C@@]3(C(=O)NS(=O)(=O)C3(C)CC3)NC(=O)[C@@H]3C[C@@H](Oc4nc5cc(OC)ccc5nc4C)CN3C2=O)CCCC1` [P4-5]: the Ki came to 0.0217 ± 0.0023 µM in experiment [1] and 0.00129 ± 5e-05 µM in experiment [3]. Further, in experiment [2], the “Fold change of Ki, D168A relative to WT” value worked out at 17 fold.

For the compound `COc1ccc2nc(C)c(O[C@@H]3C[C@H]4C(=O)N[C@]5(C(=O)NS(=O)(=O)C6(C)CC6)C[C@H]5/C=C\CCCCC[C@H](NC(=O)OC5(C)CCC5)C(=O)N4C3)nc2c1` [P4-2], the Ki in experiment [1] came out at 0.0464 ± 0.0034 µM; in experiment [3], 0.0014 ± 0.00013 µM. Besides, in experiment [2], the “Fold change of Ki, D168A relative to WT” value stood at 33 fold. The “Fold increase in potency against WT compared with the parent compound” value in experiment [3] is 4 fold.

On to `COc1ccc2nc(C)c(O[C@@H]3C[C@H]4C(=O)N[C@]5(C(=O)NS(=O)(=O)C6(C)CC6)C[C@H]5/C=C\CCCCC[C@H](NC(=O)OC5C[C@@H]6C[C@@H]6C5)C(=O)N4C3)nc2c1` (stereo partly shown) [P4-7], for which, in experiment [1], the “Fold increase in potency against D168A compared with grazoprevir” value is recorded as ~20 fold, the “Fold increase in potency against D168A compared with the parent compound” value was ~20 fold and the Ki stood at 0.0023 ± 0.0007 µM. Further, the “Fold change of Ki, D168A relative to WT” value in experiment [2] came out at 4 fold. Further, in experiment [3], affinity was put at a Ki of 0.00054 ± 0.0002 µM and the “Fold increase in potency against WT compared with the parent compound” value is “approximately 6.5 fold”.

In the case of `COC(=O)N[C@H](C(=O)N[C@H]1CCCCC/C=C\[C@@H]2C[C@@]2(C(=O)NS(=O)(=O)C2(C)CC2)NC(=O)[C@@H]2C[C@@H](Oc3nc4cc(OC)ccc4nc3C)CN2C1=O)C(C)C` [P4P5-1B], the results for the Ki in experiment [1] and in experiment [3] were 0.102 ± 0.0068 µM and 0.013 ± 0.0008 µM, respectively. Moreover, the “Fold change of Ki, D168A relative to WT” value in experiment [2] is on record as 8 fold.

Regarding `CCc1nc2ccc(OC)cc2nc1O[C@@H]1C[C@H]2C(=O)N[C@]3(C(=O)NS(=O)(=O)C4CC4)C[C@H]3/C=C\CCCCC[C@H](NC(=O)OC(C)(C)C)C(=O)N2C1` [5172-mcP1P3, reference compound], the Ki turned out to be 0.0824 ± 0.0044 µM in experiment [1] and 0.00329 ± 0.00052 µM in experiment [3].

Regarding `COc1ccc2nc(C)c(O[C@@H]3C[C@H]4C(=O)N[C@]5(C(=O)NS(=O)(=O)C6(C)CC6)C[C@H]5/C=C\CCCCC[C@H](NC(=O)OC5(C)CC5)C(=O)N4C3)nc2c1` [P4-1], in experiment [1], the “Fold increase in potency against D168A compared with the parent compound” value is on record as ~2 fold and the Ki stood at 0.0279 ± 0.0041 µM. In addition, the “Fold change of Ki, D168A relative to WT” value in experiment [2] is on record as 6 fold. Besides, in experiment [3], the Ki came to 0.00444 ± 0.0003 µM.
